Measurements reported in patent EP0249394B1 (THE UNITED STATES OF AMERICA as represented by the …, priority 1986, dated 1993).

Tested on: T4 viral receptors
Assay: General statements: binding to T4 viral receptors / inhibition of gp 120 binding to brain membranes
Protocol: Radiolabeling of gp 120, Preparation of Brain Membranes, Binding and Crosslinking of gp120 to Receptor, and Immunoprecipitation of T4 Antigen. HTLV-IIIb isolate of HIV was propaged in H9 cells, and the gp120 was isolated by immunoaffinity chromatography and preparative NaDodSO₄/PAGE. Purified gp120 was labeled with ¹²⁵I by the chloramine-T method.
Fresh human, monkey, and rat hippocampus were quickly homogenized (Polytron, Brinkmann Instruments) in 100 vol of ice-cold 50 mM Hepes (pH 7.4). The membranes collected by centrifugation (15,000 x g) were washed in the original buffer volume and were used fresh or stored at -70°C. Before use, brain membranes and highly purified T cells (ref. 16; gift of Larry Wahl) were preincubated for 15-30 min in phosphate-buffered saline (PBS). Membranes derived from 2mg (initial wet weight) of brain (≈100µg of protein) were incubated with 28,000 cpm of ¹²⁵I-gp120 for 1 hr at 37°C in 200 µl (final volume) of 50 mM Hepes containing 0.1% bovine serum albumin and the peptidase inhibitors bacitracin (0.005%), aprotinin (0.005%), leupeptin (0.001%), and chymostatin (0.001%). Incubations were rapidly vacuum-filtered and counted to determine the receptor-bound material.

Question: “CYS-THR-THR-ASN-TYR-THR-CYS (CTTNYTC; printed: CYS-THR-THR-ASN-TYR-THR-CYS) [seven amino acid peptide]” was tested. Which “activity (test not specified)” value did it give?
Answer: Its value is “active”.
